Values of other authors in patent US20210085711A1 (Japan Tobacco Inc., priority 2017, published 2021).

Test system: patients
Conditions: investigation up to the approval; cited from earlier work

sodium ferrous citrate
expression rate of nausea and vomiting: about 13%
